Assay results taken from patent publication US20250171438A1 (Agios Pharmaceuticals, Inc., priority 2022, published 2025).

Each compound was assayed against T1, human PAH with the R408W mutation (Homo sapiens, UniProt P00439, R408W) (assay: Cell Based Phenylalanine Flux Assay). Details: A375 cells expressing human R408W PAH; 24 hrs compound incubation; 13C-Tyrosine by LC-MS; average where tested multiple times; read-out: AC50.
T1 construct: expressed in transfected cells
T1 sequence (P00439 1-452 R408W): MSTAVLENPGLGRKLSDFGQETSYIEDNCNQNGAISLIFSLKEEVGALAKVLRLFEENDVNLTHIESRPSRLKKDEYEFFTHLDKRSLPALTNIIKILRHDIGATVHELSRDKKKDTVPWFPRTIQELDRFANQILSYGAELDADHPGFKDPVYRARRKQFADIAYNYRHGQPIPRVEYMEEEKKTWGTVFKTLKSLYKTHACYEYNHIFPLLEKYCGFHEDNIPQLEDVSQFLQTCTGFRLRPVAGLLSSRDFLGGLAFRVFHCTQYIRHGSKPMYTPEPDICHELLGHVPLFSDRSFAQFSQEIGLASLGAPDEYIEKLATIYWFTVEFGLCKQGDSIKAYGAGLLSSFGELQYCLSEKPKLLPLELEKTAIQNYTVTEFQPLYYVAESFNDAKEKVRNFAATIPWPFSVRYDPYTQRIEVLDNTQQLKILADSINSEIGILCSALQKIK
Set-up: scale not given here

| SMILES | AC50 [µM] |
| --- | --- |
| CC(C)(F)c1ncc(C(=O)N2CCc3[nH]cnc3[C@@H]2c2nc3c(F)cccc3s2)s1 [Example 1485, (R)-(4-(4-fluorobenzo[d]thiazol-2-yl)-6,7-dihydro-1H-imidazo[4,5-c]pyridin-5(4H)-yl)(2-(2-fluoropropan-2-yl)thiazol-5-yl)methanone] | 0.5 to 1 |
| Cn1nc(C(F)F)nc1C(=O)N1CCc2[nH]cnc2[C@@H]1c1nc2ccccc2s1 [Example 2172, (R)-(4-(benzo[d]thiazol-2-yl)-6,7-dihydro-1H-imidazo[4,5-c]pyridin-5(4H)-yl)(3-(difluoromethyl)-1-methyl-1H-1,2,4-triazol-5-yl)methanone] | > 5 |
| O=C(c1nncs1)N1CCc2[nH]cnc2[C@H]1c1nc2c(F)cccc2s1 [Example 1270, (S)-(4-(4-fluorobenzo[d]thiazol-2-yl)-6,7-dihydro-1H-imidazo[4,5-c]pyridin-5(4H)-yl)(1,3,4-thiadiazol-2-yl)methanone] | 0.5 to 1 |
| O=C(c1nnc(-c2cnn(CC(F)F)c2)o1)N1CCc2[nH]cnc2[C@H]1c1nc2c(F)cccc2s1 [Example 1882, (S)-(5-(1-(2,2-difluoroethyl)-1H-pyrazol-4-yl)-1,3,4-oxadiazol-2-yl)(4-(4-fluorobenzo[d]thiazol-2-yl)-6,7-dihydro-1H-imidazo[4,5-c]pyridin-5(4H)-yl)methanone] | < 0.5 |
| O=C(c1nnc(-c2ccccn2)o1)N1CCc2[nH]cnc2[C@H]1c1nc2cccc(F)c2s1 [Example 1718, (S)-(4-(7-fluorobenzo[d]thiazol-2-yl)-6,7-dihydro-1H-imidazo[4,5-c]pyridin-5(4H)-yl)(5-(pyridin-2-yl)-1,3,4-oxadiazol-2-yl)methanone] | < 0.5 |
| Cc1nc(C2CC2)oc1C(=O)N1CCc2[nH]cnc2[C@@H]1c1nc2ccccc2s1 [Example 1396, (R)-(4-(benzo[d]thiazol-2-yl)-6,7-dihydro-1H-imidazo[4,5-c]pyridin-5(4H)-yl)(2-cyclopropyl-4-methyloxazol-5-yl)methanone] | > 5 |
| Cc1nc([C@H](C)O)oc1C(=O)N1CCc2[nH]cnc2[C@@H]1c1nc2c(F)cccc2s1 [Example 1912, ((R)-4-(4-fluorobenzo[d]thiazol-2-yl)-6,7-dihydro-1H-imidazo[4,5-c]pyridin-5(4H)-yl)(2-((S)-1-hydroxyethyl)-4-methyloxazol-5-yl)methanone] | > 5 |
| O=C(c1cnn2ccccc12)N1CCc2[nH]cnc2[C@H]1c1nc2cccc(F)c2[nH]1 [Example 990, (S)-(4-(7-fluoro-1H-benzo[d]imidazol-2-yl)-6,7-dihydro-1H-imidazo[4,5-c]pyridin-5(4H)-yl)(pyrazolo[1,5-a]pyridin-3-yl)methanone] | 0.5 to 1 |
| O=C(c1ocnc1-c1ccccn1)N1CCc2[nH]cnc2[C@H]1c1nc2c(F)cccc2s1 [Example 1523, (S)-(4-(4-fluorobenzo[d]thiazol-2-yl)-6,7-dihydro-1H-imidazo[4,5-c]pyridin-5(4H)-yl)(4-(pyridin-2-yl)oxazol-5-yl)methanone] | 0.5 to 1 |
| O=C(c1oc(-c2ccccn2)nc1C1CC1)N1CCc2[nH]cnc2[C@H]1c1nc2c(F)cccc2s1 [Example 1535] | < 0.5 |
| O=C(c1cnsc1)N1CCc2[nH]cnc2[C@@H]1c1nc2ccccc2s1 [Example 1062, (R)-(4-(benzo[d]thiazol-2-yl)-6,7-dihydro-1H-imidazo[4,5-c]pyridin-5(4H)-yl)(isothiazol-4-yl)methanone] | > 5 |
| Cc1cc(C2(C(=O)N3CCc4[nH]cnc4[C@H]3c3nc4ccccc4s3)CC2)on1 [Example 1549] | < 0.5 |
| O=C(c1cnc(C(F)F)s1)N1CCc2[nH]cnc2[C@H]1c1nc2ccccc2s1 [Example 1521] | < 0.5 |
| O=C(c1nccs1)N1CCc2[nH]cnc2[C@@H]1c1nc2cccc(Cl)c2[nH]1 [Example 983, (R)-(4-(7-chloro-1H-benzo[d]imidazol-2-yl)-6,7-dihydro-1H-imidazo[4,5-c]pyridin-5(4H)-yl)(thiazol-2-yl)methanone] | > 5 |
| O=C(C1CC1)N1CCc2[nH]cnc2[C@H]1c1nc2cccc(F)c2s1 [Example 1259, (S)-cyclopropyl(4-(7-fluorobenzo[d]thiazol-2-yl)-6,7-dihydro-1H-imidazo[4,5-c]pyridin-5(4H)-yl)methanone] | 0.5 to 1 |
| O=C(c1cnn2cc(F)ccc12)N1CCc2[nH]cnc2[C@@H]1c1nc2ccccc2s1 [Example 1040, (R)-(4-(benzo[d]thiazol-2-yl)-6,7-dihydro-1H-imidazo[4,5-c]pyridin-5(4H)-yl)(6-fluoropyrazolo[1,5-a]pyridin-3-yl)methanone] | > 5 |
| O=C(c1cnc(C(F)(F)F)o1)N1CCc2[nH]cnc2[C@H]1c1nc2ccccc2s1 [Example 1347] | < 0.5 |
| O=C(c1oc(C2(O)CC2)nc1C(F)F)N1CCc2[nH]cnc2[C@H]1c1nc2ccccc2s1 [Example 2055] | < 0.5 |
| O=C(c1nnc(-c2ccccn2)o1)N1CCc2[nH]cnc2[C@@H]1c1nc2ccc(F)cc2s1 [Example 1719, (R)-(4-(6-fluorobenzo[d]thiazol-2-yl)-6,7-dihydro-1H-imidazo[4,5-c]pyridin-5(4H)-yl)(5-(pyridin-2-yl)-1,3,4-oxadiazol-2-yl)methanone] | 1 to 5 |
| Cn1nc(C(F)F)nc1C(=O)N1CCc2[nH]cnc2[C@H]1c1nc2ccccc2s1 [Example 2171] | 1 to 5 |
| O=C(CCC1CC1)N1CCc2[nH]cnc2[C@H]1c1nc2ccccc2s1 [Example 1021] | < 0.5 |
| O=C(c1nnc(-c2ccc(C(F)(F)F)cn2)o1)N1CCc2[nH]cnc2[C@H]1c1nc2ccccc2s1 [Example 1830] | 0.5 to 1 |
| O=C(c1nnc(-c2cn[nH]c2)o1)N1CCc2[nH]cnc2[C@H]1c1nc2ccccc2s1 [Example 1921] | 0.5 to 1 |
| O=C(c1nc2c(F)cccc2s1)N1CCc2[nH]cnc2[C@@H]1c1nc2ccccc2s1 [Example 1091, (R)-(4-(benzo[d]thiazol-2-yl)-6,7-dihydro-1H-imidazo[4,5-c]pyridin-5(4H)-yl)(4-fluorobenzo[d]thiazol-2-yl)methanone] | > 5 |
| O=C(c1ncc(Cl)s1)N1CCc2[nH]cnc2[C@@H]1c1nc2c(F)cccc2s1 [Example 1220, (R)-(5-chlorothiazol-2-yl)(4-(4-fluorobenzo[d]thiazol-2-yl)-6,7-dihydro-1H-imidazo[4,5-c]pyridin-5(4H)-yl)methanone] | 1 to 5 |
| O=C(c1nnc(-c2ccccn2)o1)N1CCc2[nH]cnc2[C@@H]1c1nc2c(F)cccc2s1 [Example 1601, (R)-(4-(4-fluorobenzo[d]thiazol-2-yl)-6,7-dihydro-1H-imidazo[4,5-c]pyridin-5(4H)-yl)(5-(pyridin-2-yl)-1,3,4-oxadiazol-2-yl)methanone] | 0.5 to 1 |
| O=C(c1ncn2ccccc12)N1CCc2[nH]cnc2[C@@H]1c1nc2cccc(F)c2s1 [Example 1267, (R)-(4-(7-fluorobenzo[d]thiazol-2-yl)-6,7-dihydro-1H-imidazo[4,5-c]pyridin-5(4H)-yl)(imidazo[1,5-a]pyridin-1-yl)methanone] | 1 to 5 |
| O=C(c1cnn(CC2CC2)c1Cl)N1CCc2[nH]cnc2[C@@H]1c1nc2c(F)cccc2s1 [Example 1972, (R)-(5-chloro-1-(cyclopropylmethyl)-1H-pyrazol-4-yl)(4-(4-fluorobenzo[d]thiazol-2-yl)-6,7-dihydro-1H-imidazo[4,5-c]pyridin-5(4H)-yl)methanone] | 1 to 5 |

Same assay, conditions: A375 cells expressing human R408W PAH; 24 hrs with compound; 13C-Tyrosine by LC-MS; average where tested multiple times

| SMILES | AC50 |
| --- | --- |
| O=C(c1c(C(F)F)nn2cc(Br)ccc12)N1CCc2[nH]cnc2C1c1nc2ccccc2s1 (stereo not drawn) | E, E |

Same assay, conditions: A375 cells expressing human R408W PAH; 24 hrs with compound; 13C-Tyrosine by LC-MS; average where tested multiple times; read-out: AC50

| SMILES | AC50 [µM] |
| --- | --- |
| CC(=O)N1CCc2[nH]cnc2C1c1nc2ccccc2[nH]1 (stereo not drawn) | > 5 |
| CC(C)(O)c1cc(C(=O)N2CCc3[nH]cnc3C2c2nc3ccccc3s2)no1 (stereo not drawn) | > 5 |
| O=C(c1cnn2cccc(F)c12)N1CCc2[nH]cnc2C1c1nc2c(F)cccc2s1 (stereo not drawn) | 1 to 5 |
| O=C(c1nnc(CCN2CCOCC2)o1)N1CCc2[nH]cnc2C1c1nc2ccccc2s1 (stereo not drawn) | > 5 |
| CS(=O)(=O)c1ncoc1C(=O)N1CCc2[nH]cnc2C1c1nc2ccccc2s1 (stereo not drawn) | 1 to 5 |
| O=C(Cc1cnn2ccccc12)N1CCc2[nH]cnc2C1c1nc2ccccc2s1 (stereo not drawn) | 1 to 5 |
| CN(C)CCn1ncc(C(=O)N2CCc3[nH]cnc3C2c2nc3ccccc3s2)c1C#N (stereo not drawn) | > 5 |
| O=C(C1CC1)N1CCc2[nH]cnc2C1c1nc2c(F)cccc2s1 (stereo not drawn) | > 5 |
| O=C(c1nc2ccccc2s1)N1CCc2[nH]cnc2C1c1nc2ccccc2[nH]1 (stereo not drawn) | > 5 |
| O=C(c1cnn2ccccc12)N1CCc2[nH]cnc2C1c1nc2ccc(Br)cc2s1 (stereo not drawn) | > 5 |
| Cc1nc(-c2ccccn2)oc1C(=O)N1CC(C)c2[nH]cnc2C1c1nc2ccccc2s1 (stereo not drawn) | 1 to 5 |
| O=C(c1cnn2cc(CCc3ccccc3)ccc12)N1CCc2[nH]cnc2C1c1nc2ccccc2s1 (stereo not drawn) | > 5 |
| Cc1csc(CCC(=O)N2CCc3[nH]cnc3[C@H]2c2nc3ccccc3[nH]2)n1 [(S)-1-(4-(1H-benzo[d]imidazol-2-yl)-1,4,6,7-tetrahydro-5H-imidazo[4,5-c]pyridin-5-yl)-3-(4-methylthiazol-2-yl)propan-1-one] | 1 to 5 |
| O=C(c1nc2ccccc2s1)N1CCc2[nH]cnc2C1c1nc2cccc(F)c2s1 (stereo not drawn) | 1 to 5 |
| O=C(c1nc2ccccc2s1)N1CCc2[nH]cnc2C1c1nc2c(F)cccc2s1 (stereo not drawn) | > 5 |
| CNCc1ccc2c(C(=O)N3CCc4[nH]cnc4C3c3nc4ccccc4s3)cnn2c1 (stereo not drawn) | 1 to 5 |
